Source: patent US6348477B1, “Anti-herpesvirus compounds and methods for identifying, making and using same” (Boehringer Ingelheim(Canada) Ltd., priority 1995, dated 2002)
Marks after values point to notes of the source that are not given here.

Tests used:
HCMV (strain AD169) [1] = test: Inhibition of HCMV replication, plaque reduction assay (PRA, Hs-68 cells); format: cell-based, human cytomegalovirus; details: Group 1 Table 1, read-out: PRA CMV EC50
Description: (§1) C) Inhibition of Human Cytomegalovirus (HCMV) replication
(§2) The effect of compounds on the replication of HCMV has been measured by using an ELISA-based assay (ELISA) and a plaque reduction assay (PRA).
(§3) Hs-68 cells ( ATCC # CRL 1635) were seeded in 12-well plates at 83,000 cells/well in 1 mL of DMEM medium (Gibco Canada Inc.) supplemented with 10% fetal bovine serum (FBS, Gibco Canada Inc.). The plates were incubated for 3 days at 37° to allow the cells to reach 80-90% confluency prior to the assay.
The medium was removed from the cells by aspiration. The cells were then infected with approximately 50 PFU of HCMV (strain AD169, ATCC VR-538) in DMEM medium supplemented with 5% inactivated FBS (assay medium). The virus was allowed to adsorb to cells for 2 h at 37°. Following viral adsorption, the medium was removed from the wells by aspiration. The cells were then incubated with or without 1 mL of appropriate concentrations of test reagent in assay medium. After 4 days of incubation at 37°, the medium was exchanged with fresh medium containing test compound and 4 days later the cells were fixed with 1% aqueous formaldehyde and stained with a 2% crystal violet solution in 20% ethanol in water. Microscopic plaques were counted using a stereomicroscope. Drug effects were calculated as a percent reduction in the number of plaques in the presence of each drug concentration compared to the number observed in the absence of drug. Ganciclovir was used as a positive control in all experiments.
The EC50 values obtained according to this assay for certain thiazolyl derivatives of this invention are listed in the following tables under the heading PRA CMV.

HCMV (strain AD169) [2] = test: Inhibition of HCMV replication, ELISA assay (Hs-68 cells, p28); format: cell-based, human cytomegalovirus; details: Group 1 Table 1, read-out: ELISA CMV EC50
Description: as §1, §2
as §3, with “(ATCC” for “( ATCC”, “96 well microtiter” for “12-well”, “10,000” for “83,000”, “100 μL” for “1 mL”
The medium was removed from wells by aspiration. The cells then were infected at a multiplicity of infection (MOI) of 0.01 PFU/cell with 50 μL of HCMV (strain AD169, ATCC VR-538) in DMEM medium supplemented with 5% heat inactivated FBS (assay medium). The virus was allowed to adsorb to cells for 2 h at 37°. Following viral adsorption, the medium was removed from the wells by aspiration. The cells were washed twice with 200 μL of assay medium to remove unabsorbed virus. The cells were then incubated with or without 100 μL of appropriate concentrations of test reagent in assay medium. After 8 days of incubation at 37°, the extent of viral replication was determined by an ELISA assay which detects the late structural protein p28 of HCMV.
Eight days after infection, the medium was aspirated from the wells. Non-specific binding sites were blocked by adding 200 μL of phosphate buffered saline containing 1% (w/v) bovine serum albumin (blocking buffer) to each well and incubating the plates for 30 min at room temperature. After removal of the blocking buffer by aspiration, the cells were fixed with 100 μL of cold ethanol-acetone solution (95:5) per well. The plates were placed at −20° for 30 min. The plates were washed 4 times with phosphate buffered saline containing 0.05% (v/v) polyoxyethylene sorbitan monolaurate (Tween 20®). Thereafter, 100 μL of mAb UL99 (Advanced Biotechnologies Inc., #13-130-100) recognizing HCMV protein p28 was added to each wells and plates were incubated for 2 h at room temperature. The plates were washed four times with 200 μL of the above-noted phosphate buffered saline/Tween-20® solution. The cells were then incubated with 100 μL of sheep anti-mouse IgGγ horseradish peroxidase conjugated for 2 h at room temperature. The plates were then washed four times with 200 μL of above-noted phosphate buffered saline/Tween-20®solution. Thereafter, 100 μL of ortho phenylenediamine dihydrochloride (OPD, Gibco Canada Inc.) solution was added to each well and the plates were agitated on a microplate shaker for 30 min in the dark. Color development was monitored at 450 nm using a microplate spectrophotometer.
The SAS program was used to calculate the % inhibition of viral replication and to generate EC50 values.
The EC50 values obtained according to this assay method for certain thiazolylphenyl derivatives of this invention are listed in the following tables under the heading ELISA CMV.

HSV-1 helicase-primase = biological target: T1, HSV-1 helicase-primase (Human herpesvirus 1, UniProt P10189+P10236); test: HSV-1 DNA-dependent ATPase assay (inhibition of HSV-1 helicase-primase); format: biochemical; details: Group 1 Table 1
T1 construct: made in house; host or cells: Sf21 insect cells triply infected with recombinant baculoviruses
From the text: A) HSV-1 DNA-Dependent ATP Assay (an in Vitro Assay Based on the Inhibition of HSV-1 Helicase-primase).
a) Preparation of enzyme: HSV-1 helicase-primase holoenzyme was produced in triply infected Sf21 cells using recombinant baculoviruses expressing the UL5, UL8 and UL52 helicase-primase subunits, as described by S. Dracheva et al., J. Biol. Chem. 1995, 270, 14148. The crude enzyme was purified by ammonium sulfate precipitation, Source 15Q® chromatography and Sephacryl® S-300 HR gel filtration (both purification systems can be obtained from Pharmacia Biotech Inc., Montreal, Quebec, Canada), see S. Dracheva et al., supra.
b) Assay: The DNA-dependent ATPase assay, described by J. J. Crute et al., Nucleic Acids Res. 1988, 16, 6585, was modified and used to evaluate the capability of the compounds of Group 1-formula 1 to inhibit HSV-1 helicase-primase activity. The reaction mixtures (80 μL each) contained 40 mM 4-(2-hydroxyethyl)-1-piperazineethanesulfonic acid (HEPES, pH 7.5), 10% (v/v) glycerol, 5.5 mM MgCl2, 1 mM DL-dithiothreitol (DTT), 50 μg/mL acetylated bovine serum albumin, 3.3% (v/v) DMSO, 4 mM ATP, 25 μM single-stranded M13 DNA hybridized to double-tailed 68-mer oligonucleotide and 3 μg/mL HSV-1 helicase-primase. After incubation for 20 min at 34°, formation of inorganic phosphate from hydrolysis of ATP was monitored spectrophotometrically at 650 nm using acidic ammonium molybdate/malachite green reagent, P. A. Lanzetta et al., Anal. Biochem. 1979, 100, 95. DNA-dependent ATPase activity was calculated from the net absorbance change in the presence and absence of inhibition.

HSV-1 strain F or KOS = test: Inhibition of herpes simplex virus (HSV-1) replication in cell culture (BHK-21 cells, glycoprotein C ELISA); format: cell-based; details: Group 1 Table 1
Description: B) Inhibition of Herpes Simplex Virus (HSV-1) Replication in Cell Culture
Assay: BHK-21 cells clone 13 (ATCC CCL10) were incubated for two days in 850 cm^2 roller bottles (2×10^7 cells/bottle) with α-MEM medium (Gibco Canada Inc., Burlington, Ontario, Canada) supplemented with 8% (v/v) fetal bovine serum (FBS, Gibco Canada, Inc.). The cells were trypsinized and then 3,000 cells in 100 μL of fresh medium were transferred into each well of a 96-well microtiter plate. The cells were incubated at 37° for a period of 3 days to reach a density of 50,000 cells per well. The cells were washed twice with 100 μL of α-MEM supplemented with 2% heat inactivated FBS and incubated for 1-2 hours in 100 μL of the same medium.
Thereafter, the cells were infected with HSV-1 strain F or KOS (multiplicity of infection=0.05 PFU/cell) in 50 μL of α-MEM supplemented with 2% heat inactivated FBS. Following one hour of virus absorption at 37°, the medium was removed and the cells were washed with α-MEM supplemented with 2% heat inactivated FBS (2×100 μL). The cells were incubated with or without 100 μL of the appropriate concentration of test reagent in α-MEM medium supplemented with 2% heat inactivated FBS. After 24 hours of incubation at 37°, the extent of viral replication was determined by an ELISA assay; for instance, the following assay that detects the late glycoprotein C of HSV-1.
Cells were fixed in the microtiter plate with 100 μL of 0.063% glutaraldehyde in phosphate buffered saline for 30 min at room temperature. The microtiter plate was then washed once with casein blocking solution and blocked with 200 μL of the same solution for one hour at room temperature. Thereafter, 100 μL of mAb C11 recognizing the glycoprotein C of HSV-1 (see E. Trybala et al., Journal of General Virology, 1994, 75, 743) was added to each well for two hours at room temperature. The plate was washed three times with phosphate buffered saline containing 0.05% polyoxyethylene (20) sorbitan monooleate. The cells were incubated with 100 μL of sheep anti-mouse IgG horseradish peroxidase for one hour at room temperature in the dark.
The plate was washed three times with 200 μL of the above-noted phosphate buffer saline preparation, and then once with 0.1 M sodium citrate (pH 4.5). Thereafter, 100 μL of orthophenylenediamine dihydrochloride (OPD, Gibco, Canada Inc.) was added to each well. The plate was agitated on a microplate shaker for 30 min in the dark. Color development was monitored at 450 nm using a microplate spectrophotometer.
SAS was used to calculate % inhibition of viral replication and to generate EC50 values.

Hs-68 cells = test: Cytotoxicity noted in the CMV assays (table footnote); format: cell-based; details: Group 1 Table 1
Description: as §3, with “(ATCC” for “( ATCC”, “96 well microtiter” for “12-well”, “10,000” for “83,000”, “100 μL” for “1 mL”
as §3

[3] = Human betaherpesvirus 5, AD169, Hs68

T1 sequence (P10189 whole entry): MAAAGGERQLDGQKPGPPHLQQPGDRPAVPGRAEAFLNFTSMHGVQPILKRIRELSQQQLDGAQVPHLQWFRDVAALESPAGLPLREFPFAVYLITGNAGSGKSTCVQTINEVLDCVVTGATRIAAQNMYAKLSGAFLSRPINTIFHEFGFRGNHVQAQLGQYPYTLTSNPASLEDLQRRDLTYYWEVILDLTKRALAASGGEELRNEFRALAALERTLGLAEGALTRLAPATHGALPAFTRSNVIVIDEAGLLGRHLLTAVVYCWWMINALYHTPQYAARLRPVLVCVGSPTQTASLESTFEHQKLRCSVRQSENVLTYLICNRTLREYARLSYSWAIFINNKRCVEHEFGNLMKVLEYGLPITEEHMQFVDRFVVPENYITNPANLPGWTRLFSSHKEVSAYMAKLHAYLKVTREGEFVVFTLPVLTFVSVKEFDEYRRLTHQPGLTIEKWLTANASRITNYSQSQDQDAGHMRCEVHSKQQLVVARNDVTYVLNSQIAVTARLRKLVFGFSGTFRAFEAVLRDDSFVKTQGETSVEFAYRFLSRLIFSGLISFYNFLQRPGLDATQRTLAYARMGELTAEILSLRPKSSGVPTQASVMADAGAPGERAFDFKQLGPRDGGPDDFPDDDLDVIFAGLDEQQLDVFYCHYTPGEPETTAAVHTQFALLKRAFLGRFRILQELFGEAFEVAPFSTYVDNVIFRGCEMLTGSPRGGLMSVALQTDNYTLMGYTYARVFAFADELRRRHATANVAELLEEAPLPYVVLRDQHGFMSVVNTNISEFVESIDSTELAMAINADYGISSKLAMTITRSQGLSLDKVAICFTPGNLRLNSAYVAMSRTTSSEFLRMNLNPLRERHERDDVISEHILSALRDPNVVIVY
T1 sequence (P10192 whole entry, further chain): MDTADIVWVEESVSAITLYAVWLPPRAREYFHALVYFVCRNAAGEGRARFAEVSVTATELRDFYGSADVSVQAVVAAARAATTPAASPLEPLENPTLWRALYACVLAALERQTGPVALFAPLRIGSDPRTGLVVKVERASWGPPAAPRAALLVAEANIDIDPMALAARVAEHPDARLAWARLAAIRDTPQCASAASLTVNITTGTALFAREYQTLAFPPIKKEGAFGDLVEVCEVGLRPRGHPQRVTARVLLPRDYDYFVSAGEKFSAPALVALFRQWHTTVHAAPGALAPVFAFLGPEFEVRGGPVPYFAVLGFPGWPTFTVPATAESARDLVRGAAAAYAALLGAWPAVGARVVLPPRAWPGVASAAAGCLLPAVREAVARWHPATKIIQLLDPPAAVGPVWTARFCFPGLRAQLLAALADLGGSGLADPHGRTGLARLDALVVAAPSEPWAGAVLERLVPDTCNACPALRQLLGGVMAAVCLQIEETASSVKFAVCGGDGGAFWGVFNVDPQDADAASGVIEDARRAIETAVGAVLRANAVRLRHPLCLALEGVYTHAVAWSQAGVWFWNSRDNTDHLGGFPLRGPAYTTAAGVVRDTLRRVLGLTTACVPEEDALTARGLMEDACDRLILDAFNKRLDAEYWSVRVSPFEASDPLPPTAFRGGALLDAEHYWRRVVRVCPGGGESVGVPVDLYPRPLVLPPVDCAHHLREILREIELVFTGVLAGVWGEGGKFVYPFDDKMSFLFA
T1 sequence (P10236 whole entry): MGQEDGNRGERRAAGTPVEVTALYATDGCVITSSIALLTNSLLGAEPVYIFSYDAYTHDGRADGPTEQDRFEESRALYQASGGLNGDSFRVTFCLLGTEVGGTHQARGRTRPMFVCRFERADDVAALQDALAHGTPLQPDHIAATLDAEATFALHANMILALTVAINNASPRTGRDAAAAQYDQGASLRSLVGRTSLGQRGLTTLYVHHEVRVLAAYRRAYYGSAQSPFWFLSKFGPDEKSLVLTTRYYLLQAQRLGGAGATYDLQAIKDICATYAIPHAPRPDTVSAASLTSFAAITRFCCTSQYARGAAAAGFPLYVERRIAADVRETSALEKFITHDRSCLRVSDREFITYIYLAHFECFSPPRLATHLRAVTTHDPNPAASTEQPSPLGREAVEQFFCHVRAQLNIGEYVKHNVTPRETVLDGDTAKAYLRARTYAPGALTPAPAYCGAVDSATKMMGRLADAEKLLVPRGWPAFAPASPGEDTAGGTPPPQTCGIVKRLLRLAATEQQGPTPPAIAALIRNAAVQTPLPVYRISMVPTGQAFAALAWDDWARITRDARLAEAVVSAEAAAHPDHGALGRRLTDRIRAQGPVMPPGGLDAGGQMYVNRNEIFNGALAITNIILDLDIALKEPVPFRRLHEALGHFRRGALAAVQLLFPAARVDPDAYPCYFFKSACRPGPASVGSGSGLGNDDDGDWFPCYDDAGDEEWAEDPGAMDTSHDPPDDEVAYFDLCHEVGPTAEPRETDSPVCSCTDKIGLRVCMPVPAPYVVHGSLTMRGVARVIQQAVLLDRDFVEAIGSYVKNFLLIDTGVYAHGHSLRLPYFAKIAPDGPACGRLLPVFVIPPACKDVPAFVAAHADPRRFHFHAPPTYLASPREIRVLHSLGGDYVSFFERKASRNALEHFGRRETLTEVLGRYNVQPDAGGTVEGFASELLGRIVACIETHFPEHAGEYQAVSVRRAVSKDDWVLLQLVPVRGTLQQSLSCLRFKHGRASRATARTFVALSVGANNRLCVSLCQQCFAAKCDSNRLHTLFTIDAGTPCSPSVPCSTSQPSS

In the case of Nc1nc(-c2ccc(NC(=O)CN(Cc3ccccc3)C(=O)N3CCOCC3)cc2)cs1 [Example 6, N-{2-{{4-(2-Amino-4-thiazolyl)phenyl}amino}-2-oxoethyl}-N-(phenylmethyl)-4-morpholinecarboxamide], the melting point is reported as 105 °C (dec.).

With Nc1nc(-c2ccc(NC(=O)CN(Cc3ccccc3)S(=O)(=O)N3CCOCC3)cc2)cs1 [Example 7, N-{4-(2-Amino-4-thiazolyl)phenyl}-2-{(4-morpholinylsulfonyl)(phenylmethyl)amino}acetamide] the melting point was 193 to 194 °C.

With Nc1nc(-c2ccc(NC(=O)CCNCc3ccccc3)cc2)cs1 [Example 8, N-{4-(2-Amino-4-thiazolyl)phenyl}-3-{(phenylmethyl)-amino}propanamide] the melting point was 131 to 133 °C.

In the case of CN(C(=O)CNCc1ccccc1)c1ccc(-c2csc(N)n2)cc1 [Example 10, N-{4-(2-Amino-4-thiazolyl)phenyl}-N-methyl-2-{(phenylmethyl)amino)acetamide], the melting point is reported as 160 to 162 °C.

CC(C)(C)OC(=O)N[C@@H](Cc1ccccc1)C(=O)Nc1ccc(-c2csc(N)n2)cc1 [Example 11, tert-Butyl N-{2-{{4-(2-Amino-4-thiazolyl)phenyl}-amino}-2-oxo-1(S)-(phenylmethyl)ethyl}carbamate] gave a melting point of 183 to 185 °C.

Nc1nc(-c2ccc(NC(=O)[C@H]3CCC(=O)N3Cc3ccccc3)cc2)cs1 [Example 12, N-{4-(2-Amino-4-thiazolyl)phenyl}-5-oxo-1-(phenylmethyl)-2(R)-pyrrolidinecarboxamide] gave a melting point of 245 to 246 °C.

With CC(C)(C)OC(=O)N1CCC[C@H]1C(=O)Nc1ccc(-c2csc(N)n2)cc1 [Example 13, tert-Butyl 2(S)-{{{4-(2-Amino-4-thiazolyl)phenyl}-amino}carbonyl}-1-pyrrolidinecarboxylate] the melting point was 238 to 239 °C.

In the case of Nc1nc(-c2ccc(NC(=O)[C@@H]3CCCN3C(=O)c3ccccc3)cc2)cs1 [Example 14, N-{4-(2-Amino-4-thiazolyl)phenyl}1-benzoyl-2(S)-pyrrolidinecarboxamide], the melting point is reported as 132 to 133 °C.

Nc1nc(-c2ccc(NC(=O)[C@@H]3CCCN3Cc3ccccc3)cc2)cs1 [Example 15, N-{4-(2-Amino-4-thiazolyl)phenyl}-1-(phenylmethyl)-2(S)-pyrrolidinecarboxamide] showed a melting point of 207 to 209 °C.

In the case of CC(c1ccccc1)N(CC(=O)Nc1ccc(-c2csc(N)n2)cc1)C(=O)C1CCCCC1 (centres unmarked) [Example 52], the EC50 (HCMV (strain AD169) [1]) is reported as 6 µM, the EC50 (HCMV (strain AD169) [2]) is reported as 1.3 µM and the IC50 (HSV-1 helicase-primase) is reported as 0.087 µM. It also gave an EC50 (HSV-1 strain F or KOS) of 0.013 µM.

In the case of Nc1nc(-c2ccc(NC(=O)CN(CC3CCCCC3)C(=O)C3CCCC3)cc2)cs1 [Example 63], the “Cytotoxic at this concentration” value (Hs-68 cells; asterisk in PRA CMV) is reported as >21* μM.

With CCCC(CCC)N(CC(=O)Nc1ccc(-c2csc(N)n2)cc1)C(=O)C1CCCCC1 [Example 82] the “Cytotoxic at this concentration” value (Hs-68 cells; asterisk in PRA CMV) was 7* μM.

For CC(c1ccccc1)N(CC(=O)Nc1ccc(-c2csc(N)n2)cc1)C(=O)OC(C)(C)C (centres unmarked) [Example 88], the EC50 (HCMV (strain AD169) [2]) was > 47 µM, the IC50 (HSV-1 helicase-primase) was 2.4 µM and the EC50 (HSV-1 strain F or KOS) was 1.2 µM.

With CCC(CC)C(=O)N(CC(=O)Nc1ccc(-c2csc(N)n2)cc1)Cc1ccccc1 [Example 104] the “Cytotoxic at this concentration” value (Hs-68 cells; asterisk in PRA CMV) was >18* μM.

Compound Nc1nc(-c2ccc(NC(=O)CN(CC3CCCCC3)S(=O)(=O)N3CCOCC3)cc2)cs1 [Example 107] has an EC50 (HCMV (strain AD169) [1]; [3]) of 12 µM, an EC50 (HCMV (strain AD169) [2]; [3]) of 1.1 µM and an IC50 (HSV-1 helicase-primase) of 2.6 µM. The “Cytotoxic at this concentration” value (Hs-68 cells; asterisk in PRA CMV) was 12* μM.

In the case of CCCC(CCC)N(CC(=O)Nc1ccc(-c2csc(N)n2)cc1)C(=O)OC(C)(C)C [Example 111], the “Cytotoxic at this concentration” value (Hs-68 cells; asterisk in ELISA CMV column) is reported as 4.0* μM.

In the case of Nc1nc(-c2ccc(NC(=O)CN(Cc3ccccc3)C(=O)Cc3cccnc3)cc2)cs1 [Example 113], the “Cytotoxic at this concentration” value (Hs-68 cells; asterisk in PRA CMV) is reported as >50* μM.

For Cc1ccccc1CN(CC(=O)Nc1ccc(-c2csc(N)n2)cc1)C(=O)Cc1ccccn1 [Example 127], the “Cytotoxic at this concentration” value (Hs-68 cells; asterisk in PRA CMV) was 25* μM.
